For data set [1], the system named is human breast cancer cell line MDA-MB-231 s.c. xenograft. In words: Antitumor effect of capecitabine after eribulin treatment in MDA-MB-231 s.c. xenograft model. Particulars: capecitabine 540 mg/kg QD8 p.o. after eribulin 1.0 mg/kg QD1 i.v.; MDA-MB-231 xenograft; FIG. 1. It counts as in vivo, nude mice. As for the experimental part:
Antitumor Effect of Capecitabine after Eribulin Treatment in Human Breast Cancer Cell Line MDA-MB-231 s.c. Xenograft Models
MDA-MB-231 cells were cultured with RPMI 1640 medium containing 10% (v/v) FBS. Cultured tumor cells were suspended in 50% (v/v) BD Matrigel (BD bioscience, San Jose, Calif.) at a density of 10×10^7 cells/mL for s.c. inoculation into nude mice. A 0.1-mL aliquot of the cell suspension was transplanted subcutaneously into the right flank region of mice. Tumor volumes were calculated according to the following formula: (width [mm]^2×length [mm])/2. Tumor weights were calculated according to the following formula: tumor volume (mm^3)×1 (mg/mm^3). In the MDA-MB-231 xenograft model, when the mean tumor volume reached between 100 and 300 mg (1 mm^3=1 mg) on day 1, nude mice were randomly divided into each group. Control (no treatment); capecitabine, 540 mg/kg, QD8, p.o.; or eribulin, 1.0 mg/kg, QD1, i.v. was administered on day 1. In the eribulin group, eribulin-treated mice were randomly divided into two groups. […] The administration volume (0.1 mL/10 g body weight) was calculated based on the body weight before administration. The tumor volume was measured two times per week. […] The data was analyzed by the Dunnett multiple comparison test to compare two groups (GraphPad Prism version 6.02 (GraphPad Software Inc., La Jolla, Calif.)). […]

The nature of data set [2]: Pharmacokinetics study of carboplatin in tumor after administration of eribulin in MDA-MB-231 s.c. xenograft model. It counts as in vivo, nude mice. Particulars: for Concentration of Carboplatin in MDA-MB-231 Tumor, AUC (0-8): tumor homogenate. As for the experimental part: Pharmacokinetics Study of Carboplatin in Tumor after Administration of Eribulin in Human Breast Cancer Cell Line MDA-MB-231 s.c. Xenograft Models
Female nude mice, once acclimatised, were subcutaneously injected with 5×10^6 MDA-MB-231 cells in a 1:1 ratio (50 μL each) with matrigel in a volume of 0.1 mL in phosphate buffered saline, on the right flank area using a 26-gauge needle. This ensured that sufficient mice with tumors in the volume range of approximately 200˜300 mm^3 were available for the study. When the tumors reached an average size of approximately 250 mm^3, 30 mice were selected. The study included an initial experiment containing 24 mice. The first group received eribulin mesylate dosed i.v. as a single dose of 3 mg/kg; for a 20 g animal 200 μL of 0.3 mg/mL eribulin mesylate solution was dosed. To control for tumor size, a vehicle control group (vehicle B) consisting of 27 mice, was introduced before carboplatin dosing. The mice in this group were chosen so that their tumor size matches the tumor size of the eribulin mesylate-treated mice group. Vehicle B group was split in 2 groups, first one of 3 mice which received vehicle (saline) i.v. injection and the second group of 24 mice received carboplatin i.v. injection. On day 1 of vehicle B or on day 15 after the treatment of eribulin, 100 mg/kg carboplatin was administered to all mice intravenously and tumor samples were collected under anesthesia at the assigned time points 0.083, 0.25, 0.5, 1, 4, 8, 24, and 48 hours (n=3 for each time point). Tumors were homogenized with 3 times their respective weights of 1×PBS using a Mini Bead Beater-96, and the concentration of carboplatin in each tumor homogenate was analyzed by a validated LC-MS method.
The PK parameters of carboplatin in tumors were calculated using a non-compartmental approach (Pheonix/WinNonlin v. 6.3, Pharsight; Mountain View, Calif.). The time point at which the concentration of carboplatin highest was denoted as tmax. The highest concentration of carboplatin was denoted as Cmax. The observed area under the tumor concentration versus time curve from time zero to the last quantifiable time point (AUC (0-t)) and to infinity (AUC (0-inf)) were calculated using the trapezoidal method. The AUC (0-inf) was calculated as AUC (0-t)+AUC extrap, where AUC extrap represents the extrapolated AUC from the last quantifiable time point (Clast) to infinity, and was calculated as Clast/λZ. Lamda z (λZ), slope of the concentration versus time curve during the terminal phase, was determined by linear regression.
The mean, standard deviation (SD) and percent coefficient of variation (% CV) of tumor concentrations were calculated using Excel 2010 (Microsoft, Redmond, Wash.). The mean, SD, and % CV for the PK parameters of carboplatin were determined in WinNonlin or Excel 2010. […]
An AB Sciex (Foster City, Calif.) API5000 mass spectrometer, with electrospray ionization under positive ion mode, was used for sample analysis. The collision-activated dissociation (CAD) with N2 was used to generate structure characteristic product ions for quantitation.
The peak areas of carboplatin were integrated using Analyst 1.6 (AB Sciex, Foster City, Calif.), and the areas were imported into Watson 7.2 (Thermo Fisher Scientific, Waltham, Mass.). Internal standard, tolbutamide, was added to each sample, excluded blank without IS, however IS was not used for quantitation due to inconsistent instrument response of tolbutamide in all analytical runs. […]

Where [3] appears, read: eribulin mesylate 3 mg/kg i.v., carboplatin 100 mg/kg i.v. on day 15.

`CCCCCOC(=O)Nc1nc(=O)n([C@@H]2O[C@H](C)[C@@H](O)[C@H]2O)cc1F` [capecitabine]: in data set [1], the “antitumor activity of capecitabine with eribulin pretreatment compared with that without pretreatment” value is reported as “significantly enhanced”.

`N.N.O=C([O-])C1(C(=O)[O-])CCC1.[Pt+2]` [Carboplatin, carboplatin]: the “Concentration of Carboplatin in MDA-MB-231 Tumor, AUC (0-8)” value was found to be 50504.02 ng·h/g in data set [2] (Eribulin pretreatment (eribulin mesylate 3 mg/kg i.v. single dose), carboplatin 100 mg/kg i.v. on day 15) and 36864.98 ng·h/g in data set [2] (Vehicle B group (no eribulin), carboplatin 100 mg/kg i.v.). Moreover, the “AUC (0-8) of carboplatin in tumor, eribulin pretreatment group relative to Vehicle B group” value in data set [2] (setting [3]) is listed as “about 1.37 fold”. In addition, the “Cmax of carboplatin in tumor, eribulin pretreatment group relative to Vehicle B group” value in data set [2] (setting [3]) is “about 2.20 fold”. For the same molecule, the “exposure of carboplatin in tumors” value in data set [2] (eribulin pretreatment group mice, Table 1, FIG. 4) was “high exposure”.

The values are drawn from US20170100367A1, “USE OF ERIBULIN IN THE TREATMENT OF CANCER” (priority 2014, published 2017).
